Series [1] relates to wild-type Sudan Gulu.
A further series can be described thus: in vitro. Conditions: African green monkey.
In series [2] the test system is wild-type Ebola Zaire. Description: microbe, parasite or virus in culture. Conditions: Zaire ebolavirus, HeLa, read-out: Ebola Zaire EC50.
The subject of series [3] is wild-type Ebola Zaire.
Series [4] concerns BDBV mucin-domain-deleted glycoprotein pseudotyped VSV. Description: microbe, parasite or virus in culture. The series is classed as cell-based, Bundibugyo ebolavirus. Conditions: Vesicular stomatitis virus, Vero.
For series [5], the system named is EBOV mucin-domain-deleted glycoprotein pseudotyped VSV. Description: microbe, parasite or virus in culture. The format is cell-based, Zaire ebolavirus. Conditions: Zaire ebolavirus, Vero.
For series [6], the system named is wild-type Sudan Gulu. Description: microbe, parasite or virus in culture. Conditions: Sudan ebolavirus, HeLa, read-out: Sudan Gulu EC50.
The test system of series [7] is parent VSV virus expressing the native VSV glycoprotein. Description: microbe, parasite or virus in culture. The format is cell-based. Particulars: Vesicular stomatitis virus, Vero, read-out: EC50 Pseudotype Assays VSV.
The test system of series [8] is full-length LASV glycoprotein pseudotyped VSV. The experiment in a line: microbe, parasite or virus in culture. The series is classed as cell-based, Lassa virus. Particulars: Vesicular stomatitis virus, read-out: EC50 Pseudotype Assays LASV.
Series [9] has as its system full-length Marburgvirus (MARV) GP pseudotyped VSV. Description: microbe, parasite or virus in culture. Conditions: for EC50: Orthomarburgvirus, read-out: EC50 Pseudotype Assays MARV. The format is cell-based, Marburg marburgvirus.
Series [10] has as its system full-length Ebola Zaire GP pseudotyped VSV (EBOV_FL). Description: microbe, parasite or virus in culture. The series is classed as cell-based. Particulars: Zaire ebolavirus, read-out: EC50 Pseudotype Assays EBOV_FL.
Series [11] deals with full-length SUDV GP pseudotyped VSV. Description: microbe, parasite or virus in culture. Conditions: Vesicular stomatitis virus, read-out: EC50 Pseudotype Assays SUDV. The format is cell-based, Sudan ebolavirus.
Where [12] appears, read: read-out: EC50 Pseudotype Assays BDBV.
Where [13] appears, read: read-out: EC50 Pseudotype Assays EBOV.

The text below walks through data of patent publication US12240857B2 (priority 2017, dated 2025).

Structures are written as SMILES. Like-named read-outs stand apart in the source and are kept apart here. A value given as a limit tells only on which side of the number the result lay.

For the molecule `CC12CC3CC(C(=O)N4CCCN(CCCN5CCCC5)CC4)(C1)CC(c1ccccc1)(C3)C2` (stereo not drawn) [Example A43], in the series on wild-type Sudan Gulu [1], the “Sudan Gulu SI (CC50/EC50)” value stood at 104. This molecule also returned a CC50 in the series “in vitro” (CC50) of 1200 nM. Moreover, the EC50 with wild-type Ebola Zaire [2] was found to be 180 nM; in series [4] (read-out: EC50 BDBV) it was 80 nM; in series [5] (read-out: EC50 EBOV) it was 140 nM; in the series with wild-type Sudan Gulu [6] it was 60 nM. Moreover, the “Ebola Zaire SI (CC50/EC50)” value with wild-type Ebola Zaire [3] amounted to 36.3.
Regarding `CC12CC3CC(C(=O)N[C@H]4CN5CCC4CC5)(C1)CC(c1ccccc1)(C3)C2` (stereo partly drawn) [Example A45], the EC50 in series [7] is > 10000 nM; in the series on wild-type Ebola Zaire [2], 380 nM; in series [8] it was > 10000 nM; in series [4] (read-out: EC50 BDBV), 140 nM; in series [4] (setting [12]) it was 160 nM; in [5] (read-out: EC50 EBOV), 60 nM. The EC50 is 61 nM in series [5] (setting [13]), 290 nM in series [9] and 120 nM in series [10]. Moreover, the CC50 in the series “in vitro” (CC50) is 7200 nM; in the series “in vitro” (Cytotox CC50) it was > 10000 nM. Also, the “Ebola Zaire SI (CC50/EC50)” value with wild-type Ebola Zaire [3] is listed as >28. In series [9], the “MARV pseudotyped virus EC50 concentration (in words)” value is on record as “sub-micromolar”.
Take `O=C(NC1CCNCC1)C1C2CC3CC1CC(c1ccccc1)(C3)C2` (stereo not drawn) [Example A81]: the “Sudan Gulu SI (CC50/EC50)” value in the series on wild-type Sudan Gulu [1] turned out to be 266. In “in vitro” (CC50), the CC50 worked out at 13900 nM. Also, the EC50 in the series with wild-type Ebola Zaire [2] is 1110 nM; in series [4] (read-out: EC50 BDBV), 110 nM; in series [5] (read-out: EC50 EBOV) it was 180 nM; with wild-type Sudan Gulu [6], 210 nM. The “Ebola Zaire SI (CC50/EC50)” value with wild-type Ebola Zaire [3] is given as 48.9.
Consider `c1ccc(C23CC4CC(CC(CNC5CCNCC5)(C4)C2)C3)cc1` [Example C2, N-((3-phenyladamantan-1-yl)methyl)piperidin-4-amine], for which the “Sudan Gulu SI (CC50/EC50)” value in the series with wild-type Sudan Gulu [1] came to 109. This molecule yielded a CC50 in the series “in vitro” (CC50) of 3600 nM. Moreover, the EC50 is 250 nM with wild-type Ebola Zaire [2], 200 nM in series [4] (read-out: EC50 BDBV), 250 nM in [5] (read-out: EC50 EBOV) and 60 nM with wild-type Sudan Gulu [6]. Besides, the “Ebola Zaire SI (CC50/EC50)” value in the series with wild-type Ebola Zaire [3] was 25.3.
As to `CC1CCCC(C)N1CC(O)COCCC12CC3CC(CC(C3)C1)C2` (stereo not drawn) [Example D8, 1-[2-(adamantan-1-yl)ethoxy]-3-(2,6-dimethylpiperidin-1-yl) propan-2-ol], the EC50 in [7] turned out to be 3800 nM; in series [8], 4900 nM; in [4] (24 h, read-out: EC50 BDBV), 80 nM; in series [4] (setting [12]), 80 nM; in [5] (24 h, read-out: EC50 EBOV), 210 nM; in series [5] (setting [13]), 210 nM. The EC50 in series [9] stood at 590 nM; in series [10], 300 nM. Also, the CC50 came to 3800 nM in the series “in vitro” (CC50) and 4000 nM in “in vitro” (Cytotox CC50). Moreover, the “MARV pseudotyped virus EC50 concentration (in words)” value in series [9] is “sub-micromolar”.
With `CC1CCN(CC(O)COc2ccc(C34CC5CC(CC(C5)C3)C4)cc2)CC1` (stereo not drawn) [Example D21, 1-[4-(adamantan-1-yl)phenoxy]-3-(4-methylpiperidin-1-yl)propan-2-ol], the concentration for a half-maximal effect (EC50) in series [7] was found to be 3700 nM; in series [11], 410 nM; with wild-type Ebola Zaire [2], 150 nM; in [8] it was 3000 nM; in series [4] (24 h, read-out: EC50 BDBV), 110 nM; in series [4] (setting [12]), 110 nM. The EC50 in series [5] (24 h, read-out: EC50 EBOV) amounted to 50 nM; in [5] (setting [13]) it was 50 nM; in [9], 360 nM; in [10], 110 nM; in the series with wild-type Sudan Gulu [6] it was 190 nM. For the same molecule, in the series on wild-type Sudan Gulu [1], the “Sudan Gulu SI (CC50/EC50)” value is 38.2. For the same molecule, the CC50 amounted to 1100 nM in “in vitro” (CC50) and 3700 nM in “in vitro” (Cytotox CC50). Besides, the “Ebola Zaire SI (CC50/EC50)” value in the series with wild-type Ebola Zaire [3] was found to be 48.1. Besides, the “MARV pseudotyped virus EC50 concentration (in words)” value in series [9] is recorded as “sub-micromolar”.
Regarding `CCN(CC)CCNc1nc(C23CC4CC(CC(C4)C2)C3)cs1` [Example D32, (2-{[4-(adamantan-1-yl)-1,3-thiazol-2-yl]amino}ethyl) diethylamine], the EC50 in [7] was > 10000 nM; in [8] it was > 10000 nM; in series [4] (24 h, read-out: EC50 BDBV) it was 170 nM; in [4] (setting [12]) it was 170 nM; in series [5] (24 h, read-out: EC50 EBOV), 230 nM; in series [5] (setting [13]), 230 nM. For the same molecule, the EC50 is 610 nM in series [9] and 200 nM in series [10]. The figures for the CC50 in the series “in vitro” (CC50) and in “in vitro” (Cytotox CC50) were 9000 nM and > 10000 nM, respectively. In [9], the “MARV pseudotyped virus EC50 concentration (in words)” value is given as “sub-micromolar”.

In general, EC50 refers to the midpoint of the concentration-response curve.
